Key:
[1] = tested on: Green Peach Aphid ("GPA") (Myzus persicae); assay: Bioassay on Green Peach Aphid (GPA), foliar spray on cabbage seedlings, corrected % control; assay type: in vivo; conditions: for GPA rating (corrected % control class): foliar spray on cabbage seedlings; for GPA: Table ABC (P), rating of corrected % control
[2] = tested on: Yellow Fever Mosquito "YFM" (Aedes aegypti); conditions: for YFM rating (mortality class): Yellow Fever Mosquito larvae, 96-well plates; for YFM: Table ABC (P), rating of mortality, Yellow Fever Mosquito
[3] = tested on: Beet Armyworm (Spodoptera exigua) ("BAW"); assay: Bioassay on Beet Armyworm (BAW), 128-well diet tray assay, percent mortality; assay type: in vivo; conditions: for BAW rating (percent mortality class): Beet Armyworm, 128-well diet tray assay; for pest or weed control at 50 µg/cm2: Spodoptera exigua, read-out: BAW
How it was run: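 Larvae in covered diet trays held at 25 °C, 14:10 light-dark, for five to seven days. Percent mortality scored per well and averaged over eight wells per treatment.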

[4] = tested on: Cabbage Looper (Trichoplusia ni) ("CL"); assay: Bioassay on Cabbage Looper (CL), 128-well diet tray assay, percent mortality; assay type: in vivo; conditions: for CL rating (percent mortality class): Cabbage Looper, 128-well diet tray assay; for pest or weed control at 50 µg/cm2: Trichoplusia ni, read-out: CL
How it was run: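 Larvae held in covered diet trays at 25 °C, 14:10 light-dark, for five to seven days. Percent mortality scored per well and averaged over eight wells.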

Q: Which results are given for `CC(C)c1ccccc1NC(=S)NC(=O)NCCc1ccc(-c2ncn(-c3ccc(OC(F)(F)F)cc3)n2)cc1` [F2, N-[2-isopropylphenyl]-N-[2-(4-{1-[4-(trifluoromethoxy)phenyl]-1H-1,2,4-triazol-3-yl}phenyl)ethyl]dicarbonimidothioic diamide]?
A: GPA rating (corrected % control class) [1]: B (More than 0-Less than 80); YFM rating (mortality class) [2]: A (80-100); BAW rating (percent mortality class) [3]: A (50-100); CL rating (percent mortality class) [4]: A (50-100)

Q: With `Cc1ccc(C(C)C)c(N2C(=O)CS/C2=N\C(=O)NCCc2ccc(-c3ncn(-c4ccc(OC(F)(F)F)cc4)n3)cc2)c1` [F5, (Z)-1-(3-(2-isopropyl-5-methylphenyl)-4-oxothiazolidin-2-ylidene)-3-(4-(1-(4-(trifluoromethoxy)phenyl)-1H-1,2,4-triazol-3-yl)phenethyl)urea] as the compound, how does the “GPA rating (corrected % control class)” value [1] read?
A: A (80-100)

Q: And the “YFM rating (mortality class)” value [2]?
A: A (80-100)

Q: And the “BAW rating (percent mortality class)” value [3]?
A: A (50-100)

Q: What about the “CL rating (percent mortality class)” value [4] of the same compound?
A: A (50-100)

Q: What does the source list for `COc1ccc(C(C)C)c(N2C(=O)CS/C2=N\C(=O)NCCc2ccc(-c3ncn(-c4ccc(OC(F)(F)F)cc4)n3)cc2)c1` [F6, (Z)-1-(3-(2-isopropyl-5-methoxyphenyl)-4-oxothiazolidin-2-ylidene)-3-(4-(1-(4-(trifluoromethoxy)phenyl)-1H-1,2,4-triazol-3-yl)phenethyl)urea]?
A: GPA rating (corrected % control class) [1]: B (More than 0-Less than 80); YFM rating (mortality class) [2]: A (80-100); BAW rating (percent mortality class) [3]: A (50-100); CL rating (percent mortality class) [4]: A (50-100)

Q: With `CC(Cc1ccc(-c2ncn(-c3ccc(OC(F)(F)F)cc3)n2)cc1)NC(=O)/N=C1\SCC(=O)N1c1ccccc1C(C)C` (stereo not shown) [F7, (Z)-1-(3-(2-isopropylphenyl)-4-oxothiazolidin-2-ylidene)-3-(1-(4-(1-(4-(trifluoromethoxy)phenyl)-1H-1,2,4-triazol-3-yl)phenyl)propan-2-yl)urea] as the compound, how does the “GPA rating (corrected % control class)” value [1] read?
A: B (More than 0-Less than 80)

Q: And the “YFM rating (mortality class)” value [2]?
A: A (80-100)

Q: What about the “BAW rating (percent mortality class)” value [3] of the same compound?
A: A (50-100)

Q: What about the “CL rating (percent mortality class)” value [4] of the same compound?
A: A (50-100)

Q: How did the “GPA rating (corrected % control class)” value [1] turn out when `Cc1ccc(C(C)C)c(N2C(=O)CS/C2=N\C(=O)NCC(C)c2ccc(-c3ncn(-c4ccc(OC(F)(F)F)cc4)n3)cc2)c1` (stereo not shown) [F10, (Z)-1-(3-(2-isopropyl-5-methylphenyl)-4-oxothiazolidin-2-ylidene)-3-(2-(4-(1-(4-(trifluoromethoxy)phenyl)-1H-1,2,4-triazol-3-yl)phenyl)propyl)urea] was run?
A: B (More than 0-Less than 80)

Q: And the “YFM rating (mortality class)” value [2]?
A: A (80-100)

Q: And the “BAW rating (percent mortality class)” value [3]?
A: A (50-100)

Q: What about the “CL rating (percent mortality class)” value [4] of the same compound?
A: A (50-100)

Q: `CC(C)c1cccc(N2C(=O)CS/C2=N\C(=O)NCCc2ccc(-c3ncn(-c4ccc(OC(F)(F)F)cc4)n3)cc2)c1` [P51, (Z)-1-(3-(3-isopropylphenyl)-4-oxothiazolidin-2-ylidene)-3-(4-(1-(4-(trifluoromethoxy)phenyl)-1H-1,2,4-triazol-3-yl)phenethyl)urea] was tested. Which GPA [1] did it give?
A: B (More than 0-Less than 80)

Q: What about the YFM [2] of the same compound?
A: A (80-100)

Q: What about the pest or weed control at 50 µg/cm2 [3] of the same compound?
A: 50 to 100%

Q: What about the pest or weed control at 50 µg/cm2 [4] of the same compound?
A: 50 to 100%

Q: Which results are given for `Cc1ccc(C(C)C)c(N2C(=O)CS/C2=N\C(=O)NCCc2ccc(-c3ncn(-c4ccc(C(F)(F)F)cc4)n3)cc2)c1` [P52, (Z)-1-(3-(2-isopropyl-5-methylphenyl)-4-oxothiazolidin-2-ylidene)-3-(4-(1-(4-(trifluoromethyl)phenyl)-1H-1,2,4-triazol-3-yl)phenethyl)urea]?
A: YFM [2]: A (80-100); pest or weed control at 50 µg/cm2 [3]: 50 to 100%; pest or weed control at 50 µg/cm2 [4]: 50 to 100%

Q: What does the source list for `COc1ccc(C(C)C)c(N2C(=O)CS/C2=N\C(=O)NCCc2ccc(-c3ncn(-c4ccc(C(F)(F)F)cc4)n3)cc2)c1` [P53, (Z)-1-(3-(2-isopropyl-5-methoxyphenyl)-4-oxothiazolidin-2-ylidene)-3-(4-(1-(4-(trifluoromethyl)phenyl)-1H-1,2,4-triazol-3-yl)phenethyl)urea]?
A: YFM [2]: A (80-100); pest or weed control at 50 µg/cm2 [3]: 50 to 100%; pest or weed control at 50 µg/cm2 [4]: 50 to 100%

Q: How did the YFM [2] turn out when `Cc1ccc(C(C)C)c(N2C(=O)C(C)S/C2=N\C(=O)NCCc2ccc(-c3ncn(-c4ccc(OC(F)(F)F)cc4)n3)cc2)c1` (stereo not shown) [P57, (Z)-1-(3-(2-isopropyl-5-methylphenyl)-5-methyl-4-oxothiazolidin-2-ylidene)-3-(4-(1-(4-(trifluoromethoxy)phenyl)-1H-1,2,4-triazol-3-yl)phenethyl)urea] was run?
A: A (80-100)

Q: And the pest or weed control at 50 µg/cm2 [3]?
A: 50 to 100%

Q: And the pest or weed control at 50 µg/cm2 [4]?
A: 50 to 100%

Q: Which YFM [2] does the source give for `Cc1ccc(C(C)C)c(-n2c(C)cs/c2=N\C(=O)NCCc2ccc(-c3ncn(-c4ccc(OC(F)(F)F)cc4)n3)cc2)c1` [P65, (Z)-1-(3-(2-isopropyl-5-methylphenyl)-4-methylthiazol-2(3H)-ylidene)-3-(4-(1-(4-(trifluoromethoxy)phenyl)-1H-1,2,4-triazol-3-yl)phenethyl)urea] here?
A: A (80-100)

Q: And the pest or weed control at 50 µg/cm2 [3]?
A: 50 to 100%

Q: And the pest or weed control at 50 µg/cm2 [4]?
A: 50 to 100%

Q: Which YFM [2] does the source give for `Cc1ccccc1N1C(=O)CS/C1=N\C(=O)NCCCCc1ccc(-c2ncn(-c3ccc(OC(F)(F)F)cc3)n2)cc1` [P144, (Z)-1-(4-oxo-3-(o-tolyl)thiazolidin-2-ylidene)-3-(4-(4-(1-(4-(trifluoromethoxy)phenyl)-1H-1,2,4-triazol-3-yl)phenyl)butyl)urea] here?
A: A (80-100)

Q: And the pest or weed control at 50 µg/cm2 [3]?
A: 50 to 100%

Q: What about the pest or weed control at 50 µg/cm2 [4] of the same compound?
A: 50 to 100%

Q: With `Cc1ccc(N2C(=O)CS/C2=N\C(=O)NCCCCc2ccc(-c3ncn(-c4ccc(OC(F)(F)F)cc4)n3)cc2)c(C(C)C)c1` [P154, (Z)-1-(3-(2-isopropyl-4-methylphenyl)-4-oxothiazolidin-2-ylidene)-3-(4-(4-(1-(4-(trifluoromethoxy)phenyl)-1H-1,2,4-triazol-3-yl)phenyl)butyl)urea] as the compound, how does the YFM [2] read?
A: B (More than 0-Less than 80)

Q: And the pest or weed control at 50 µg/cm2 [3]?
A: 50 to 100%

Q: What about the pest or weed control at 50 µg/cm2 [4] of the same compound?
A: 50 to 100%

Q: With `Cc1ccc(C(C)C)c(N2C(=O)CS/C2=N\C(=O)NCCCCc2ccc(-c3ncn(-c4ccc(C(F)(F)F)cc4)n3)cc2)c1` [P159, (Z)-1-(3-(2-isopropyl-5-methylphenyl)-4-oxothiazolidin-2-ylidene)-3-(4-(4-(1-(4-(trifluoromethyl)phenyl)-1H-1,2,4-triazol-3-yl)phenyl)butyl)urea] as the compound, how does the GPA [1] read?
A: B (More than 0-Less than 80)

Q: And the YFM [2]?
A: A (80-100)

Q: What about the pest or weed control at 50 µg/cm2 [3] of the same compound?
A: 50 to 100%

Q: And the pest or weed control at 50 µg/cm2 [4]?
A: 50 to 100%

Q: Which YFM [2] does the source give for `Cc1ccc(C(C)C)c(N2C(=O)CS/C2=N\C(=O)NCCC#Cc2ccc(-c3ncn(-c4ccc(OC(F)(F)F)cc4)n3)cc2)c1` [P160, (Z)-1-(3-(2-isopropyl-5-methylphenyl)-4-oxothiazolidin-2-ylidene)-3-(4-(4-(1-(4-(trifluoromethoxy)phenyl)-1H-1,2,4-triazol-3-yl)phenyl)but-3-yn-1-yl)urea] here?
A: B (More than 0-Less than 80)

Q: What about the pest or weed control at 50 µg/cm2 [3] of the same compound?
A: 50 to 100%

Q: And the pest or weed control at 50 µg/cm2 [4]?
A: 50 to 100%

Q: Which YFM [2] does the source give for `CC(C)c1ccccc1N1C(=O)CS/C1=N\C(=O)NCC(C)c1ccc(-c2ncn(-c3ccc(OC(F)(F)F)cc3)n2)cc1` (stereo not shown) [P205, (Z)-1-(3-(2-isopropylphenyl)-4-oxothiazolidin-2-ylidene)-3-(2-(4-(1-(4-(trifluoromethoxy)phenyl)-1H-1,2,4-triazol-3-yl)phenyl)propyl)urea] here?
A: A (80-100)

Q: What about the pest or weed control at 50 µg/cm2 [3] of the same compound?
A: 50 to 100%

Q: What about the pest or weed control at 50 µg/cm2 [4] of the same compound?
A: 50 to 100%

Q: Which results are given for `COc1ccc(C(C)C)c(N2C(=O)CS/C2=N\C(=O)NCC(C)c2ccc(-c3ncn(-c4ccc(OC(F)(F)F)cc4)n3)cc2)c1` (stereo not shown) [P679, (Z)-1-(3-(2-isopropyl-5-methoxyphenyl)-4-oxothiazolidin-2-ylidene)-3-(2-(4-(1-(4-(trifluoromethoxy)phenyl)-1H-1,2,4-triazol-3-yl)phenyl)propyl)urea]?
A: YFM [2]: A (80-100); pest or weed control at 50 µg/cm2 [3]: 50 to 100%; pest or weed control at 50 µg/cm2 [4]: 50 to 100%
